Read-outs that look alike come from different tables or passages of the source.
Key:
[1] = system: eIF4E phosphorylation at Serine 209 in HEK 293 cells; test: eIF4E phosphorylation in HEK 293 cells (phospho-specific antibody, fluorescent plate reader); format: cell-based; conditions: Homo sapiens, HEK293; eIF4E phosphorylation at Serine 209, 2 hours exposure; read-out: HEK 293 cell;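 further: Well-level p-eIF4E immunofluorescence normalized to DAPI signal, expressed as percent eIF4E phosphorylation, with IC50 derived from concentration-response curves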
[2] = target: T1, recombinant full-length human kinase MNK1 (Homo sapiens, UniProt Q9BUB5); test: MNK1 radiometric kinase activity assay; format: biochemical
T1 construct: the recombinant full-length human kinase MNK1; made in house; host or cells: insect cells

P-gp (human MDR1, ABCB1) = test: MDCK-MDR1 permeability (blood-brain barrier permeability); conditions: dog
[3] = target: T2, recombinant full length human kinase MNK2 (Homo sapiens, UniProt Q9HBH9); test: MNK2 radiometric kinase activity assay; format: biochemical
T2 construct: the recombinant full length human kinase MNK2; made in house; host or cells: insect cells

[4] = Liver microsome stability; conditions: mouse, liver microsomes
[5] = radiometric activity assay, read-out: MNK1
[6] = radiometric activity assay, read-out: MNK2

T1 sequence (Q9BUB5 whole entry): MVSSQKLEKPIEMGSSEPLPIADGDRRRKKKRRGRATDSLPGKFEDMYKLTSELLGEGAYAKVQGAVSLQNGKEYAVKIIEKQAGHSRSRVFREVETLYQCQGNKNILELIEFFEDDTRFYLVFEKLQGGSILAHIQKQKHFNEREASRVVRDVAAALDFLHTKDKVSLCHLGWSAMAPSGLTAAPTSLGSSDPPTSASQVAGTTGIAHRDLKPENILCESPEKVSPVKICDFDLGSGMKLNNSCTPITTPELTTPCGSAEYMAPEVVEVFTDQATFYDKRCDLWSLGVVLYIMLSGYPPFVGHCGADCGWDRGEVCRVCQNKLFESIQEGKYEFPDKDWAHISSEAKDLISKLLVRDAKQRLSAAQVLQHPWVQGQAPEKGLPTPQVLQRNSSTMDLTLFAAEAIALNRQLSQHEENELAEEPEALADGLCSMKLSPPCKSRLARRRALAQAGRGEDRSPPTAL
T2 sequence (Q9HBH9 whole entry): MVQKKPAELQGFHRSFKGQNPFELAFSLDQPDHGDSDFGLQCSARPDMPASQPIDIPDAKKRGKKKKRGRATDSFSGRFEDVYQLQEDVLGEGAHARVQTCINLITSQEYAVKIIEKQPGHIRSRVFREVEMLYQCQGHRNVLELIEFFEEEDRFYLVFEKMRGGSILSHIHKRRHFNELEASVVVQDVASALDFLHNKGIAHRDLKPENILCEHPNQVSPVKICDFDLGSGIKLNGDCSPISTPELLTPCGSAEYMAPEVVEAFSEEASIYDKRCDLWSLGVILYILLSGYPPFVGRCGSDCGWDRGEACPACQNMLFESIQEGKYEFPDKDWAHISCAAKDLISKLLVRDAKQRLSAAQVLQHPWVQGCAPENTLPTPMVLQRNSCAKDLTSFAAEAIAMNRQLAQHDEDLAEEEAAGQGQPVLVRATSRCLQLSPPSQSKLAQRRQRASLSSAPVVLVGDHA

| Compound | IC50 [2, 5] | Papp A→B at 5 uM (P-gp (human MDR1, ABCB1)) | Papp B→A at 5 uM (P-gp (human MDR1, ABCB1)) | efflux ratio at 5 uM (P-gp (human MDR1, ABCB1)) | IC50 [3, 6] | half-life [4] | IC50 [1] | IC50 [2] | IC50 [3] |
| --- | --- | --- | --- | --- | --- | --- | --- | --- | --- |
| Cc1cc(Nc2cc(NC(=O)C3(CN)CC3)ncn2)c(=O)n2c1C(=O)NC21CCC2(CC2)CC1 [4ET-03-055, 1-(aminomethyl)-N-(6-((8″-methyl-1″,5″-dioxo-1″,5″-dihydro-2″H-dispiro[cyclopropane-1,1′-cyclohexane-4′,3″-imidazo[1,5-a]pyridin]-6″-yl)amino)pyrimidin-4-yl)cyclopropane-1-carboxamide] | 127 nM | 3 ×10⁻⁶ cm/s | 57.6 ×10⁻⁶ cm/s | 19 | 29.5 nM | – | 44 nM | – | – |
| Cc1cc(Nc2cc(NC(=O)C3CC3)ncn2)c(=O)n2c1C(=O)NC21CCC2(CC1)CN2C(=O)OCc1ccccc1 (stereo not shown) [4ET-03-046] | 49.8 nM | – | – | – | 1.7 nM | – | 6.4 nM | – | – |
| Cc1cc(Nc2cc(NC(=O)C3CC3)ncn2)c(=O)n2c1C(=O)NC21CC2(CCC2)C1 [4ET-03-043, N-(6-((8″-methyl-1″,5″-dioxo-1″,5″-dihydro-2″H-dispiro[cyclobutane-1,1′-cyclobutane-3′,3″-imidazo[1,5-a]pyridin]-6″-yl)amino)pyrimidin-4-yl)cyclopropanecarboxamide] | 44.9 nM | 27.4 ×10⁻⁶ cm/s | 56.3 ×10⁻⁶ cm/s | 2.1 | 1.7 nM | 3.35 h | 0.9 nM | – | – |
| Cc1cc(Nc2cc(NC(=O)C3CC3)ncn2)c(=O)n2c1C(=O)NC21CCC2(CC1)CNC2 [4ET-03-049, N-(6-((8″-methyl-1″,5″-dioxo-1″,5″-dihydro-2″H-dispiro[azetidine-3,1′-cyclohexane-4′,3″-imidazo1[1,5-a]pyridin]-6″-yl)amino)pyrimidin-4-yl)cyclopropanecarboxamide] | 80 nM | 0.3 ×10⁻⁶ cm/s | 0.7 ×10⁻⁶ cm/s | 2.1 | 2.8 nM | 2.43 h | 110 nM | – | – |
| CCOC(=O)C1CC12CCC1(CC2)NC(=O)c2c(C)cc(Nc3cc(NC(=O)C4CC4)ncn3)c(=O)n21 (stereo not shown) [4ET-03-045, ethyl 6″-((6-(cyclopropanecarboxamido)pyrimidin-4-yl)amino)-8″-methyl-1″,5″-dioxo-1″,5″-dihydro-2″H-dispiro [cyclopropane-1,1′-cyclohexane-4′,3″-imidazo[1,5-a]pyridine]-2-carboxylate] | 131 nM | – | – | – | 12.1 nM | – | 17.7 nM | – | – |
| Cc1cc(Nc2cc(N)ncn2)c(=O)n2c1C(=O)NC21CCC2(CC1)CN2 (stereo not shown) [4ET-01-012, 6″-((6-aminopyrimidin-4-yl)amino)-8″-methyl-2″H-dispiro[aziridine-2,1′-cyclohexane-4′,3″-imidazo[1,5-a]pyridine]-1″,5″-dione] | – | – | – | – | – | – | 57.1 nM | 27.9 nM | 3 nM |
| Cc1cc(Nc2cc(NC(=O)C3CC3)ncn2)c(=O)n2c1C(=O)NC21CCC2(CC1)CN(C(=O)OC(C)(C)C)C2 [4ET-03-048, tert-butyl 6″-((6-(cyclopropanecarboxamido)pyrimidin-4-yl)amino)-8″-methyl-1″,5″-dioxo-1″,5″-dihydro-2″H-dispiro[azetidine-3,1′-cyclohexane-4′,3″-imidazo[1,5-a]pyridine]-1-carboxylate] | 145 nM | – | – | – | 5.2 nM | – | 6.1 nM | – | – |
| Cc1cc(Nc2cc(N)ncn2)c(=O)n2c1C(=O)NC21CC2(CCCC2)C1 [4ET-01-018, 6″-((6-aminopyrimidin-4-yl)amino)-8″-methyl-2″H-dispiro[cyclopentane-1,1′-cyclobutane-3′,3″-imidazo[1,5-a]pyridine]-1″,5″-dione] | 41.8 nM | 50.8 ×10⁻⁶ cm/s | 66.7 ×10⁻⁶ cm/s | 1.3 | 4.1 nM | 0.853 h | 4.1 nM | – | – |
| Cc1cc(Nc2cc(N)ncn2)c(=O)n2c1C(=O)NC21CC2(CCC2)C1 [4ET-01-009, 6″-((6-aminopyrimidin-4-yl)amino)-8″-methyl-2″H-dispiro[cyclobutane-1,1′-cyclobutane-3′,3″-imidazo[1,5-a]pyridine]-1″,5″-dione] | 13.1 nM | – | – | – | 0.8 nM | – | 3.6 nM | – | – |

More lines, main results first:

| IC50 [2, 5] | Papp A→B at 5 uM (P-gp (human MDR1, ABCB1)) | Papp B→A at 5 uM (P-gp (human MDR1, ABCB1)) | efflux ratio at 5 uM (P-gp (human MDR1, ABCB1)) | IC50 [3, 6] | half-life [4] | Compound | IC50 [1] | IC50 [2] | IC50 [3] |
| --- | --- | --- | --- | --- | --- | --- | --- | --- | --- |
| 37.5 nM | – | – | – | 12.2 nM | – | Cc1cc(Nc2cc(NC(=O)C3(CNS(C)(=O)=O)CC3)ncn2)c(=O)n2c1C(=O)NC21CCC2(CC2)CC1 [4ET-03-076, N-(6-((8″-methyl-1″,5″-dioxo-1″,5″-dihydro-2″H-dispiro[cyclopropane-1,1′-cyclohexane-4′,3″-imidazo[1,5-a]pyridin]-638-yl)amino)pyrimidin-4-yl)-1-(methylsulfonamidomethyl)cyclopropane-1-carboxamide] | – | – | – |
| 31 nM | – | – | – | 1.7 nM | – | Cc1cc(Nc2cc(NC(=O)C3CC4(C3)CN(C)C4)ncn2)c(=O)n2c1C(=O)NC21CCC2(CC2)CC1 [4ET-03-060, 2-methyl-N-(6-((8″-methyl-1″,5″-dioxo-1″,5″-dihydro-2″H-dispiro[cyclopropane-1,1′-cyclohexane-4′,3″-imidazo[1,5-a]pyridin]-638-yl)amino)pyrimidin-4-yl)-2-azaspiro[3.3]heptane-6-carboxamide] | 6.5 nM | – | – |
| 45.9 nM | 7.6 ×10⁻⁶ cm/s | 58.1 ×10⁻⁶ cm/s | 7.6 | 3.1 nM | 1.87 h | Cc1cc(Nc2cc(NCCO)ncn2)c(=O)n2c1C(=O)NC21CCC2(CC2)CC1 [4ET-03-074, 6″-((6-((2-hydroxyethyl)amino)pyrimidin-4-yl)amino)-8″-methyl-2″H-dispiro[cyclopropane-1,1′-cyclohexane-4′,3″-imidazo[1,5-a]pyridine]-1″,5″-dione] | 11.3 nM | – | – |
| 51.8 nM | 0.5 ×10⁻⁶ cm/s | 15.9 ×10⁻⁶ cm/s | 31.8 | 3.5 nM | 2.95 h | Cc1cc(Nc2cc(NC(=O)[C@H]3[C@@H]4CNC[C@@H]43)ncn2)c(=O)n2c1C(=O)NC21CCC2(CC2)CC1 [4ET-03-056, (1R,5S,6r)-N-(6-((8″-methyl-1″,5″-dioxo-1″,5″-dihydro-2″H-dispiro[cyclopropane-1,1′-cyclohexane-4′,3″-imidazo[1,5-a]pyridin]-638-yl)amino)pyrimidin-4-yl)-3-azabicyclo[3.1.0]hexane-6-carboxamide] | 11.1 nM | – | – |
| 36.2 nM | – | – | – | 1.7 nM | – | Cc1cc(Nc2cc(NC(=O)[C@H]3[C@@H]4CN(C)C[C@@H]43)ncn2)c(=O)n2c1C(=O)NC21CCC2(CC2)CC1 [4ET-03-061, (1R,5S,6r)-3-methyl-N-(6-((8″-methyl-1″,5″-dioxo-1″,5″-dihydro-2″H-dispiro[cyclopropane-1,1′-cyclohexane-4′,3″-imidazo[1,5-a]pyridin]-638-yl)amino)pyrimidin-4-yl)-3-azabicyclo[3.1.0]hexane-6-carboxamide] | 5.2 nM | – | – |
| 30.3 nM | 17.1 ×10⁻⁶ cm/s | 23.4 ×10⁻⁶ cm/s | 1.4 | 10.1 nM | 1.24 h | Cc1cc(Nc2cc(NC(=O)C3(CN(C)C)CC3)ncn2)c(=O)n2c1C(=O)NC21CCC2(CC2)CC1 [4ET-03-081, 1-((dimethylamino)methyl)-N-(6-((8″-methyl-1″,5″-dioxo-1″,5″-dihydro-2″H-dispiro[cyclopropane-1,1′-cyclohexane-4′,3″-imidazo[1,5-a]pyridin]-6″-yl)amino)pyrimidin-4-yl)cyclopropane-1-carboxamide] | – | – | – |

Reference: patent US20250186436A1 (4E Therapeutics, Inc., priority 2021, published 2025)
